The subject of assay [1] is RS4;11 cells. The assay can be described thus: RS4;11 cell proliferation assay (CellTiter-Glo). The format is cell-based. The settings on record: Homo sapiens, RS4-11, 48 h, read-out: RS4;11 (nM), CTG IC50. As for the experimental part: Cell proliferation was measured using the CellTiter-Glo® Luminescent Cell Viability Assay. The assay involved the addition of a single reagent (CellTiter-Glo® Reagent) directly to cells cultured in serum-supplemented medium.
Each compound evaluated was prepared as a DMSO stock solution (10 mM). Compounds were tested in duplicate on each plate, with a 10-point serial dilution curve (1:3 dilution). Compound treatment (1.0 μL) was added from the compound dilution plate to the cell plate. The highest compound concentration was 10 μM (final), with a 0.1% final DMSO concentration. Plates were then incubated at 37° C., 5% CO2. After 48 h of compound treatment for RS4;11 or 72 h for NCI-H1963, cell plates were equilibrated at rt for approximately 30 mins. An equi-volume amount of CellTiter-Glo® Reagent (40 μL) was added to each well. […] Luminescence was recorded using a Envision plate reader according to CellTiter-Glo protocol. IC50 of each compound was calculated using GraphPad Prism by nonlinear regression analysis.
A general note: ATP-based viability assays read luminescence as a measure of living cells.

In assay [2] the target is Bcl-2 (Homo sapiens (Human), UniProt P10415). The assay can be described thus: Bcl-2 protein family binding assay (Bcl2scan platform), Bcl-2. The settings on record: BIM peptide ligand, 11-point dilution, read-out: Bc1-2 Kd (nm). As for the experimental part:
(§1) E. coli were grown to log-phase and infected with T7 phage from a frozen stock (multiplicity of infection=0.4) and incubated with shaking at 32° C. until lysis (90-150 minutes). The lysates were centrifuged (5,000×g) and filtered (0.2 μm) to remove cell debris. […] The liganded beads were blocked with excess biotin and washed with blocking buffer (SeaBlock (Pierce), 1% BSA, 0.05% Tween 20, 1 mM DTT) to remove unbound ligand and to reduce non-specific phage binding. […] Test compounds were prepared as 100× stocks in 100% DMSO. Kds were determined using an 11-point 3-fold compound dilution series with one DMSO control point. […] The compounds were then diluted directly into the assays such that the final concentration of DMSO was 0.9%. All reactions performed in polypropylene 384-well plates. Each was a final volume of 0.02 ml. […] The BCL2 concentration in the eluates was measured by qPCR. Binding constants (Kds) were calculated with a standard dose-response curve using the Hill equation:
(§2) [formula] The Hill Slope was set to −1. Curves were fitted using a non-linear least square fit with the Levenberg-Marquardt algorithm.

Assay [3] has as its target Bcl-XL (Homo sapiens (Human), UniProt Q07817). The assay can be described thus: Bcl-2 protein family binding assay (Bcl2scan platform), Bcl-XL. The settings on record: BIM peptide ligand, 11-point dilution, read-out: Bc1-XL Kd (nm). As to the method: as §1, §2

SMILES strings stand for the structures.

The results in this text go back to patent publication US11318134B2, “Benzamide compounds” (priority 2018, dated 2022).

Sequence of Bcl-2 (P10415 whole entry): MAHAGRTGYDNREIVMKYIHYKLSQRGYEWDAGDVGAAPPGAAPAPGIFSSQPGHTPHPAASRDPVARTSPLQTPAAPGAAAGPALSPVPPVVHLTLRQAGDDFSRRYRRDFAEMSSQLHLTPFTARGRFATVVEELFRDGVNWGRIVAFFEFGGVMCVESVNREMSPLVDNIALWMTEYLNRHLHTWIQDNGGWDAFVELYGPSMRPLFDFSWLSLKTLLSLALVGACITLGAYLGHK
Sequence of Bcl-XL (Q07817 whole entry): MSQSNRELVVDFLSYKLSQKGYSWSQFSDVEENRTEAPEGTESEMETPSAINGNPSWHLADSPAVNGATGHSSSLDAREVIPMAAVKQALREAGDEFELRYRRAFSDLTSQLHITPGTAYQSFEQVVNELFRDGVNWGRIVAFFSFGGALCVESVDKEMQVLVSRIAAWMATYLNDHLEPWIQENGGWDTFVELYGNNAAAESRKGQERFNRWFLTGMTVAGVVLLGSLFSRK

What is called Kd is a measure of binding affinity in units of concentration. For the molecule `CCC12CC(C3=C(CN4CCN(c5ccc(C(=O)NS(=O)(=O)c6ccc(NCC7(F)CCOCC7)c([N+](=O)[O-])c6)c(Oc6cnc7[nH]ccc7c6)c5)CC4)CCC(C)(C)C3)(C1)C2` [Example 25, 2-((1H-pyrrolo[2,3-b]pyridin-5-yl)oxy)-4-(4-((2-(3-ethylbicyclo[1.1.1]pentan-1-yl)-4,4-dimethylcyclohex-1-en-1-yl)methyl)piperazin-1-yl)-N-((4-(((4-fluorotetrahydro-2H-pyran-4-yl)methyl)amino)-3-nitrophenyl)sulfonyl)benzamide], the IC50 in assay [1] is under 100 nM. In addition, the equilibrium dissociation constant (Kd) is under 10 nM in assay [2] and over 100 nM in assay [3].

As for `CN1CCC(F)(CNc2ccc(S(=O)(=O)NC(=O)c3ccc(N4CCN(CC5=C(C67CC(C(F)F)(C6)C7)CC(C)(C)CC5)CC4)cc3Oc3cnc4[nH]ccc4c3)cc2[N+](=O)[O-])CC1` [Example 38, 2-((1H-pyrrolo[2,3-b]pyridin-5-yl)oxy)-4-(4-((2-(3-(difluoromethyl)bicyclo[1.1.1]pentan-1-yl)-4,4-dimethylcyclohex-1-en-1-yl)methyl)piperazin-1-yl)-N-((4-(((4-fluoro-1-methylpiperidin-4-yl)methyl)amino)-3-nitrophenyl)sulfonyl)benzamide], the IC50 in assay [1] is under 100 nM. The Kd is under 10 nM in assay [2] and 10 to 100 nM in assay [3].

As to `CC1(C)CCC(CN2CCN(c3ccc(C(=O)NS(=O)(=O)c4ccc(NCC5CC6(CCOCC6)C5)c([N+](=O)[O-])c4)c(Oc4cnc5[nH]ccc5c4)c3)CC2)=C(C23CC(C)(C2)C3)C1` [Example 11, 2-((1H-pyrrolo[2,3-b]pyridin-5-yl)oxy)-N-((4-(((7-oxaspiro[3.5]nonan-2-yl)methyl)amino)-3-nitrophenyl)sulfonyl)-4-(4-((4,4-dimethyl-2-(3-methylbicyclo[1.1.1]pentan-1-yl)cyclohex-1-en-1-yl)methyl)piperazin-1-yl)benzamide], the IC50 in assay [1] is under 100 nM. Besides, the Kd was under 10 nM in assay [2] and over 100 nM in assay [3].

For the molecule `CC1(C)CCC(CN2CCN(c3ccc(C(=O)NS(=O)(=O)c4ccc(NCC5CCOCC5)c([N+](=O)[O-])c4)c(Oc4cnc5[nH]ccc5c4)c3)CC2)=C(C23CC(C(F)F)(C2)C3)C1` [Example 33, 2-((1H-pyrrolo[2,3-b]pyridin-5-yl)oxy)-4-(4-((2-(3-(difluoromethyl)bicyclo[1.1.1]pentan-1-yl)-4,4-dimethylcyclohex-1-en-1-yl)methyl)piperazin-1-yl)-N-((3-nitro-4-(((tetrahydro-2H-pyran-4-yl)methyl)amino)phenyl)sulfonyl)benzamide], in assay [1], the IC50 was under 100 nM. Moreover, the Kd in assay [2] is under 10 nM; in assay [3], over 100 nM.

Consider `CC1(C)CCC(CN2CCN(c3ccc(C(=O)NS(=O)(=O)c4ccc(NCC5CCOCC5)c([N+](=O)[O-])c4)c(Oc4cnc5[nH]ccc5c4)c3)CC2)=C(C23CC(F)(C2)C3)C1` [Example 10, 2-(1H-pyrrolo[2,3-b]pyridin-5-yloxy)-4-(4-((2-(3-fluorobicyclo[1.1.1]pentan-1-yl)-4,4-dimethylcyclohex-1-enyl)methyl)piperazin-1-yl)-N-(3-nitro-4-((tetrahydro-2H-pyran-4-yl)methylamino)phenylsulfonyl)benzamide], for which the IC50 in assay [1] is under 100 nM. Further, the figures for the Kd in assay [2] and in assay [3] were under 10 nM and over 100 nM, respectively.

Consider `CC1(C)CCC(CN2CCN(c3ccc(C(=O)NS(=O)(=O)c4ccc(OCC5(F)CCOCC5)c([N+](=O)[O-])c4)c(Oc4cnc5[nH]ccc5c4)c3)CC2)=C(C23CC(C(F)F)(C2)C3)C1` [Example 36, 2-((1H-pyrrolo[2,3-b]pyridin-5-yl)oxy)-4-(4-((2-(3-(difluoromethyl)bicyclo[1.1.1]pentan-1-yl)-4,4-dimethylcyclohex-1-en-1-yl)methyl)piperazin-1-yl)-N-((4-((4-fluorotetrahydro-2H-pyran-4-yl)methoxy)-3-nitrophenyl)sulfonyl)benzamide], for which the IC50 in assay [1] is under 100 nM. The dissociation constant Kd in assay [2] is under 10 nM; in assay [3], 10 to 100 nM.
